Measured values: patent publication US20080064667A1, “OXAZOLE DERIVATIVES OF TETRACYCLINES” (Wyeth, priority 2003, published 2008)
Converted amounts (≈) assume the structure as drawn.

Columns and labels:
Experiment in all cases: MIC, broth microdilution (NCCLS)
Assay type in all cases: cell-based
[1] = system: E. coli GC2203 (ATCC Control); details: Escherichia coli, Mueller-Hinton II broth, 18-22 hours at 35° C.
In short: (§1)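 Broth microdilution per NCCLS M7-A5 in Mueller-Hinton II broth, inoculum 10^5 CFU/ml. Plates incubated 18-22 h at 35 °C in ambient air; MIC is lowest inhibitory antibiotic concentration.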

[2] = system: H. influenzae<> GC6896 (ATCC Control); details: Haemophilus influenzae, Mueller-Hinton II broth, 18-22 hours at 35° C.
In short: as §1

[3] = system: S. pyogenes* GC4563 (Clinical); details: Streptococcus pyogenes, Mueller-Hinton II broth, 18-22 hours at 35° C.
In short: as §1

[4] = system: S. pneumoniae* GC4465 (Clinical); details: Streptococcus pneumoniae, Mueller-Hinton II broth, 18-22 hours at 35° C.
In short: as §1

[5] = system: S. aureus GC6467 (tet(M) + (K)); details: Staphylococcus aureus
In short: as §1

E. coli GC2270 (tet(M)) = details: Escherichia coli
In short: as §1

[6] = system: S. aureus GC2216 (ATCC Control); details: Staphylococcus aureus, Mueller-Hinton II broth, 18-22 hours at 35° C.
In short: as §1

[7] = system: S. aureus GC6466 (tet(M)); details: Staphylococcus aureus, Mueller-Hinton II broth, 18-22 hours at 35° C.
In short: as §1

[8] = system: M. catarrhalis* GC6907 (Clinical); details: Moraxella catarrhalis, Mueller-Hinton II broth, 18-22 hours at 35° C.
In short: as §1

[9] = system: E. coli GC4559 (parent GC4560); details: Escherichia coli, Mueller-Hinton II broth, 18-22 hours at 35° C.
In short: as §1

[10] = system: S. aureus GC1131 (Clinical); details: Staphylococcus aureus, Mueller-Hinton II broth, 18-22 hours at 35° C.
In short: as §1

[11] = system: E. faecalis GC4555 (ATCC Control); details: Enterococcus faecalis, Mueller-Hinton II broth, 18-22 hours at 35° C.
In short: as §1

[12] = system: E. coli GC4560 (IMP mutant); details: Escherichia coli
In short: as §1

[13] = system: E. faecalis GC2242 (Van-resistant); details: Enterococcus faecalis, Mueller-Hinton II broth, 18-22 hours at 35° C.
In short: as §1

[14] = system: S. pneumoniae* GC1894 (Clinical); details: Streptococcus pneumoniae, Mueller-Hinton II broth, 18-22 hours at 35° C.
In short: as §1

[15] = system: E. faecalis GC2267 (tet(L) + (M) + (S)); details: Enterococcus faecalis
In short: as §1

[16] = system: S. aureus GC1079 (tet(K)); details: Staphylococcus aureus, Mueller-Hinton II broth, 18-22 hours at 35° C.
In short: as §1

[17] = system: S. aureus GC4536 (Smith MP -In Vivo); details: Staphylococcus aureus, Mueller-Hinton II broth, 18-22 hours at 35° C.
In short: as §1

[18] = system: C. albicans GC3066 ATCC (Control); details: Candida albicans, Mueller-Hinton II broth, 18-22 hours at 35° C.
E. coli GC1073 (tet(B)) = details: Escherichia coli
In short: as §1

## CN(C)c1cc2nc(CN3CCCC3)oc2c2c1C[C@H]1C[C@H]3[C@H](N(C)C)C(O)=C(C(N)=O)C(=O)[C@@]3(O)C(O)=C1C2=O [Example 37, (6aR,7aS,8S,11aS)-5,8-bis(dimethylamino)-9,11a,12-trihydroxy-11,13-dioxo-2-(pyrrolidin-1-ylmethyl)-6,6a,7,7a,8,11,11a,13-octahydrotetraceno[2,1-d][1,3]oxazole-10-carboxamide]
[1]
  MIC: 2 µg/mL (≈ 3.54 µM)
[2]
  MIC: 4 µg/mL (≈ 7.07 µM)
[3]
  MIC: 1 µg/mL (≈ 1.77 µM)
[4]
  MIC: 1 µg/mL (≈ 1.77 µM)
[5]
  MIC: 8 µg/mL (≈ 14.1 µM)
E. coli GC2270 (tet(M))
  MIC: 4 µg/mL (≈ 7.07 µM)
[6]
  MIC: 4 µg/mL (≈ 7.07 µM)
[7]
  MIC: 4 µg/mL (≈ 7.07 µM)
[8]
  MIC: 1 µg/mL (≈ 1.77 µM)
[9]
  MIC: 2 µg/mL (≈ 3.54 µM)
[10]
  MIC: 4 µg/mL (≈ 7.07 µM)
[11]
  MIC: 2 µg/mL (≈ 3.54 µM)
[12]
  MIC: 1 µg/mL (≈ 1.77 µM)
[13]
  MIC: 2 µg/mL (≈ 3.54 µM)
[14]
  MIC: 1 µg/mL (≈ 1.77 µM)
[15]
  MIC: 4 µg/mL (≈ 7.07 µM)
[16]
  MIC: 4 µg/mL (≈ 7.07 µM)
[17]
  MIC: 4 µg/mL (≈ 7.07 µM)
[18]
  MIC: > 64 µg/mL

## CN(C)c1cc2nc(CCl)oc2c2c1C[C@H]1C[C@H]3[C@H](N(C)C)C(O)=C(C(N)=O)C(=O)[C@@]3(O)C(O)=C1C2=O [Example 35, (6aR,7aS,8S,11aS)-2-(chloromethyl)-5,8-bis(dimethylamino)-9,11a,12-trihydroxy-11,13-dioxo-6,6a,7,7a,8,11,11a,13-octahydrotetraceno[2,1-d][1,3]oxazole-10-carboxamide]
[1]
  MIC: 4 µg/mL (≈ 7.53 µM)
[2]
  MIC: 2 µg/mL (≈ 3.77 µM)
[3]
  MIC: 0.25 µg/mL (≈ 0.471 µM)
[4]
  MIC: 0.5 µg/mL (≈ 0.942 µM)
[5]
  MIC: 8 µg/mL (≈ 15.1 µM)
E. coli GC2270 (tet(M))
  MIC: 16 µg/mL (≈ 30.1 µM)
[6]
  MIC: 0.5 µg/mL (≈ 0.942 µM)
[7]
  MIC: 1 µg/mL (≈ 1.88 µM)
[8]
  MIC: 0.5 µg/mL (≈ 0.942 µM)
E. coli GC1073 (tet(B))
  MIC: 32 µg/mL (≈ 60.3 µM)
[9]
  MIC: 8 µg/mL (≈ 15.1 µM)
[10]
  MIC: 0.5 µg/mL (≈ 0.942 µM)
[11]
  MIC: 1 µg/mL (≈ 1.88 µM)
[12]
  MIC: 0.5 µg/mL (≈ 0.942 µM)
[13]
  MIC: 1 µg/mL (≈ 1.88 µM)
[14]
  MIC: 0.25 µg/mL (≈ 0.471 µM)
[15]
  MIC: 4 µg/mL (≈ 7.53 µM)
[16]
  MIC: 4 µg/mL (≈ 7.53 µM)
[17]
  MIC: 1 µg/mL (≈ 1.88 µM)
[18]
  MIC: > 64 µg/mL

## CCCCCCOc1ccc(-c2nc3cc(N(C)C)c4c(c3o2)C(=O)C2=C(O)[C@]3(O)C(=O)C(C(N)=O)=C(O)[C@@H](N(C)C)[C@@H]3C[C@@H]2C4)cc1 [Example 32, (6aR,7aS,8S,11aS)-5,8-bis(dimethylamino)-2-[4-(hexyloxy)phenyl]-9,11a,12-trihydroxy-11,13-dioxo-6,6a,7,7a,8,11,11a,13-octahydrotetraceno[2,1-d][1,3]oxazole-10-carboxamide]
[1]
  MIC: > 64 µg/mL
[2]
  MIC: > 64 µg/mL
[3]
  MIC: 16 µg/mL (≈ 24.3 µM)
[4]
  MIC: 16 µg/mL (≈ 24.3 µM)
[5]
  MIC: > 64 µg/mL
E. coli GC2270 (tet(M))
  MIC: > 64 µg/mL
[6]
  MIC: > 64 µg/mL
[7]
  MIC: > 64 µg/mL
[8]
  MIC: 32 µg/mL (≈ 48.6 µM)
E. coli GC1073 (tet(B))
  MIC: > 64 µg/mL
[9]
  MIC: > 64 µg/mL
[10]
  MIC: > 64 µg/mL
[11]
  MIC: 64 µg/mL (≈ 97.2 µM)
[12]
  MIC: > 64 µg/mL
[13]
  MIC: 64 µg/mL (≈ 97.2 µM)
[14]
  MIC: 8 µg/mL (≈ 12.1 µM)
[15]
  MIC: > 64 µg/mL
[16]
  MIC: > 64 µg/mL
[17]
  MIC: > 64 µg/mL
[18]
  MIC: > 64 µg/mL
